Measurements: ChEMBL document CHEMBL1201862, “PubChem BioAssay data set” (2004)
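96-well plates; 48 h exposure; 5 concentrations. Endpoints by linear interpolation between flanking doses. Not reached: highest tested concentration assigned. GI50 marks 50% less growth.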 Activity calls are given as the source filed them. Rule as the data show it: active = GI50 up to about 1.1 µM and inactive = higher.

Legend:
Experiment in all cases: NCI-60 cell line screen, 48 h
[1] = test system: HOP-62
[2] = test system: SF-268
[3] = test system: HL-60
[4] = test system: SK-MEL-2
[5] = test system: SK-OV-3
[6] = test system: MDA-MB-435
[7] = test system: SW-620
[8] = test system: UACC-257
[9] = test system: RPMI-8226
[10] = test system: TK-10
[11] = test system: A549
[12] = test system: IGROV-1
[13] = test system: MDA-N
[14] = test system: T47D
[15] = test system: PC-3
[16] = test system: COLO 205
[17] = test system: MDA-MB-231
[18] = test system: SK-MEL-5
[19] = test system: NCI-H522
[20] = test system: SNB-75

Measured: GI50

CC(C)c1cc(CN(C)C)c(O)c(C(C)(C)C)c1
inactive: [1] 22.8 µM | [2] 22 µM | [3] 6.04 µM | [4] 18.1 µM | [5] 98.9 µM | [6] 36.3 µM | [7] 20.2 µM | [8] 15.3 µM | [9] 13.9 µM | [10] 35.1 µM | [11] 23.2 µM | [12] 47.1 µM | [13] 26.6 µM | [14] 24.7 µM | [15] 21.6 µM | [16] 20.7 µM | [17] 36.2 µM | [18] 14.9 µM | [19] 15.9 µM

N#CC(C#N)=CNCCN1CCN(C=C(C#N)C#N)CC1
inactive: [1] > 100 µM | [2] > 100 µM | [3] > 100 µM | [4] > 100 µM | [5] > 100 µM | [6] > 100 µM | [7] > 100 µM | [8] > 100 µM | [9] > 100 µM | [10] > 100 µM | [11] > 100 µM | [12] > 100 µM | [13] > 100 µM | [14] > 100 µM | [15] > 100 µM | [16] > 100 µM | [17] > 100 µM | [18] > 100 µM | [19] > 100 µM

C=C1C2CC3CCC2C(OC(=O)c2ccccc2C(=O)O)C13 (centres undefined)
inactive: [1] > 100 µM | [2] > 100 µM | [3] > 100 µM | [4] > 100 µM | [5] > 100 µM | [6] > 100 µM | [7] > 100 µM | [8] > 100 µM | [10] > 100 µM | [11] > 100 µM | [12] > 100 µM | [13] > 100 µM | [14] > 100 µM | [15] > 100 µM | [16] > 100 µM | [17] > 100 µM | [18] > 100 µM | [19] > 100 µM | [20] 3.1 µM

Cc1cc(=O)n2nc(SCc3ccccc3)sc2n1
inactive: [1] > 100 µM | [2] > 100 µM | [3] > 100 µM | [5] > 100 µM | [6] 66.4 µM | [7] > 100 µM | [9] > 100 µM | [10] 34.4 µM | [11] > 100 µM | [12] > 100 µM | [13] > 100 µM | [14] 42.3 µM | [15] > 100 µM | [16] > 100 µM | [17] > 100 µM | [18] 43.2 µM | [19] > 100 µM | [20] > 100 µM

O=C1c2cccc3cc([N+](=O)[O-])cc(c23)C(=O)N1O
inactive: [1] 32.8 µM | [2] 85.3 µM | [3] > 100 µM | [4] 32.4 µM | [5] 46.9 µM | [6] 34.3 µM | [7] 38.2 µM | [8] 33.7 µM | [9] 19.4 µM | [10] 25.9 µM | [11] 33.6 µM | [12] 22.9 µM | [13] 47 µM | [14] 37.2 µM | [15] 43.5 µM | [16] 51.1 µM | [17] 14.2 µM | [18] 35.6 µM | [19] 58.7 µM

CS(=O)(=O)OCCCSCCSCCCOS(C)(=O)=O
inactive: [1] > 100 µM | [2] > 100 µM | [3] > 100 µM | [5] > 100 µM | [6] > 100 µM | [7] > 100 µM | [8] > 100 µM | [10] > 100 µM | [11] > 100 µM | [12] > 100 µM | [13] > 100 µM | [14] > 100 µM | [15] > 100 µM | [16] > 100 µM | [17] > 100 µM | [18] > 100 µM | [19] > 100 µM | [20] > 100 µM

CC#CC#C/C=C1/C=CC2(CCCCO2)O1 (centres undefined)
inactive: [2] > 100 µM | [3] 19.5 µM | [4] > 100 µM | [5] > 100 µM | [6] > 100 µM | [7] > 100 µM | [8] > 100 µM | [10] > 100 µM | [11] > 100 µM | [12] 70.1 µM | [13] > 100 µM | [14] > 100 µM | [15] > 100 µM | [16] 71.1 µM | [17] > 100 µM | [18] > 100 µM | [19] 40.1 µM | [20] > 100 µM

COC(=O)c1c(C)cccc1C1CN=NC12Cc1cc(C)c(C)cc1C2=O (centres undefined)
inactive: [1] > 100 µM | [2] 66.5 µM | [3] 17.5 µM | [4] 31 µM | [5] 55.2 µM | [6] 27.9 µM | [7] 52.6 µM | [8] 27.2 µM | [10] 51.4 µM | [11] 27.8 µM | [12] > 100 µM | [13] 25.6 µM | [14] 40.6 µM | [15] 34.7 µM | [16] 39.4 µM | [17] 65.9 µM | [18] 17.1 µM | [19] 19.2 µM | [20] 38.1 µM
